The source made the active and inactive calls.
Key:
[1] = HEK-293T cell viability reduction – luminescence, B-cell screen hits, cytotoxicity control for BCR NF-kB inhibitor project, dose response (AID 489021); format: functional, cell-based;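 also: HEK-293T cells carrying an NF-kB luciferase reporter; cells exposed to compound for about 14 hours before viability readout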
[2] = Vero E6 cell cytotoxicity, dose response, cytotoxicity control for non-replicating M. tuberculosis project, secondary assay (AID 492998); format: functional, VeroE6; details: Vero C1008
[3] = HepG2 cell cytotoxicity, dose response, cytotoxicity control for non-replicating M. tuberculosis project (AID 489018); format: functional; details: Mycobacterium tuberculosis
[4] = THP-1 cell cytotoxicity, dose response, cytotoxicity control for non-replicating M. tuberculosis project (AID 489025); format: functional
[5] = molecular target: Voltage-dependent T-type calcium channel subunit alpha-1H (Homo sapiens, UniProt O95180); format: functional;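 also: channel activity triggered by adding a high calcium stimulation buffer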
Chain of Voltage-dependent T-type calcium channel subunit alpha-1H (O95180 whole entry): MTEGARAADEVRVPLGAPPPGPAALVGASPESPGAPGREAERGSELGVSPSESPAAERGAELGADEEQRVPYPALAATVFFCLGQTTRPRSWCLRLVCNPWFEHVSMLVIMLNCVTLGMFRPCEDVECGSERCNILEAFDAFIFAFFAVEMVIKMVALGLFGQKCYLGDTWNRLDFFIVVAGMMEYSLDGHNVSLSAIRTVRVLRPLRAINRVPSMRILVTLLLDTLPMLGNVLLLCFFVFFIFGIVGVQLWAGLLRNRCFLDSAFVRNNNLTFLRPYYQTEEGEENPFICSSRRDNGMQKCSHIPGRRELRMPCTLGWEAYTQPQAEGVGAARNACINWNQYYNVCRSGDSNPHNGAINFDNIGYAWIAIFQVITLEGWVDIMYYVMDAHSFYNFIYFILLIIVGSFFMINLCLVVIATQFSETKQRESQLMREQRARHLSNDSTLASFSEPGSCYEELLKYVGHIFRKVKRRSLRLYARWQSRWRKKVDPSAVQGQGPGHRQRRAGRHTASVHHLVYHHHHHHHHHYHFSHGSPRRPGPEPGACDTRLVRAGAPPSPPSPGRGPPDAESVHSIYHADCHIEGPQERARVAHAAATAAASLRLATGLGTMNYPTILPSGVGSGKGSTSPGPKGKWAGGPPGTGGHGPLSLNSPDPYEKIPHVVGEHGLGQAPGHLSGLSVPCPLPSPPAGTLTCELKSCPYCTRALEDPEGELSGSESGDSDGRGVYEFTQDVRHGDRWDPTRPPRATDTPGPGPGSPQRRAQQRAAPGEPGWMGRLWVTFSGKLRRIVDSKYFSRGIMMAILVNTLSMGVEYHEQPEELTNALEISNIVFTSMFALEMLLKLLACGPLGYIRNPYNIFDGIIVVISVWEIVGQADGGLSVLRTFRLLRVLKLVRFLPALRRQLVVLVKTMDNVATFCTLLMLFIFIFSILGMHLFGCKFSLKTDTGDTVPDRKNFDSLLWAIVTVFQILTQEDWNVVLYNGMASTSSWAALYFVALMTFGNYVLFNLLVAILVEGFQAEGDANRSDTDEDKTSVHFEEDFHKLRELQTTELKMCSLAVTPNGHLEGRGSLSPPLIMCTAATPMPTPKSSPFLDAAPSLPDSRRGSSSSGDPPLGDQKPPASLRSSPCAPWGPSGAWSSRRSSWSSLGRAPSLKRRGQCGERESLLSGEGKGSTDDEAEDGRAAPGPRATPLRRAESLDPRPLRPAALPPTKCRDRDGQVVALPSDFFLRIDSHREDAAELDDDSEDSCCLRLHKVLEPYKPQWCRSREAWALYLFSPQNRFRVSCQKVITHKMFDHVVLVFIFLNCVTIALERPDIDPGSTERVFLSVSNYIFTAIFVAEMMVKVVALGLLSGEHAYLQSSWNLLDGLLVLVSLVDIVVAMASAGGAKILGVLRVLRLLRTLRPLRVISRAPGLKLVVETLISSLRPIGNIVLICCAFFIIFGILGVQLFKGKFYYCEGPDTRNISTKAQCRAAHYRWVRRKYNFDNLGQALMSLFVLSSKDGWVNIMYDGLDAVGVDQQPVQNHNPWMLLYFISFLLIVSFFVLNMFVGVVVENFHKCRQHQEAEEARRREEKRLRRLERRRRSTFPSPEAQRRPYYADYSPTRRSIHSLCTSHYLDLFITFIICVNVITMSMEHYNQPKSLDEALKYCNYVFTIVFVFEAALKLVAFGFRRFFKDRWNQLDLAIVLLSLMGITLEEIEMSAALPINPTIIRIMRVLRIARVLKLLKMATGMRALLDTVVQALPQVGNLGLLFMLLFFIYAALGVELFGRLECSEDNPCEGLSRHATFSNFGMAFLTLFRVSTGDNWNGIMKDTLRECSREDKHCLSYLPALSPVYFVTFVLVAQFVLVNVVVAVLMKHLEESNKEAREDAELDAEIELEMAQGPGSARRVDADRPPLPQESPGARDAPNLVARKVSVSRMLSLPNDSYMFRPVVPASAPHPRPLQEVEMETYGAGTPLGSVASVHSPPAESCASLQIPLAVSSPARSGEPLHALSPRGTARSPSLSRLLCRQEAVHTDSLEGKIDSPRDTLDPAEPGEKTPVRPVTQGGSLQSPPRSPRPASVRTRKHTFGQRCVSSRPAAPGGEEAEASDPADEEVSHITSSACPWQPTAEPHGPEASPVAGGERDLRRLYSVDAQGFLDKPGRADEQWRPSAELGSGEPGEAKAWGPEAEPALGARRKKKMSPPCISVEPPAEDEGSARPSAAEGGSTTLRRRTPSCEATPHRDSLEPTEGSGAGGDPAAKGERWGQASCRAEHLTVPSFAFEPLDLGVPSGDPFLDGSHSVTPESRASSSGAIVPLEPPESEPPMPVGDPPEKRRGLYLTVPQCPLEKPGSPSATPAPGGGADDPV

cells = format: functional
[6] = molecular target: T1, Ubiquitin-conjugating enzyme E2 N (Homo sapiens, UniProt P61088); format: functional
T1 sequence (P61088 whole entry): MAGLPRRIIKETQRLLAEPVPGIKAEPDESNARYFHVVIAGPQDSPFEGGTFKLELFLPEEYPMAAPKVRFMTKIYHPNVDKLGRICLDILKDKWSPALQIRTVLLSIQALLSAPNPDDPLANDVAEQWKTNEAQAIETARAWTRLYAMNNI

[7] = molecular target: T1, Ubiquitin-conjugating enzyme E2 N; format: functional; remark: listed apart in the source
Bcl-2-related protein A1 = molecular target: T2, Bcl-2-related protein A1 (Mus musculus, UniProt Q07440); format: functional;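 also: confirmatory dose–response counterscreen on Bfl-1, used to check hits from a UBC13 polyubiquitin inhibitor campaign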
T2 sequence (Q07440 whole entry): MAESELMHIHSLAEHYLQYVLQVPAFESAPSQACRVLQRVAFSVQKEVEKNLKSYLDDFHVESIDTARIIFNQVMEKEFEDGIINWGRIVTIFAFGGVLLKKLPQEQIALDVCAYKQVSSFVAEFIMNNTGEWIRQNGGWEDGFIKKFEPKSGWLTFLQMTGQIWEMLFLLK

[8] = Luminescence Cell-Based Dose Retest to Confirm Inhibitors of Cancer Stem Cells. [Related pubchem assays (depositor defined):AID2717, AID2721]; format: functional; details: Homo sapiens
[9] = molecular target: Nucleotide-binding oligomerization domain-containing protein 2 (Homo sapiens, UniProt Q9HC29); experiment: inhibition of NOD2-driven NF-kB reporter – cell-based, luminescence, uHTS, HEK293 (AID 1566); format: functional
Chain of Nucleotide-binding oligomerization domain-containing protein 2 (Q9HC29 whole entry, the tested form may be a part): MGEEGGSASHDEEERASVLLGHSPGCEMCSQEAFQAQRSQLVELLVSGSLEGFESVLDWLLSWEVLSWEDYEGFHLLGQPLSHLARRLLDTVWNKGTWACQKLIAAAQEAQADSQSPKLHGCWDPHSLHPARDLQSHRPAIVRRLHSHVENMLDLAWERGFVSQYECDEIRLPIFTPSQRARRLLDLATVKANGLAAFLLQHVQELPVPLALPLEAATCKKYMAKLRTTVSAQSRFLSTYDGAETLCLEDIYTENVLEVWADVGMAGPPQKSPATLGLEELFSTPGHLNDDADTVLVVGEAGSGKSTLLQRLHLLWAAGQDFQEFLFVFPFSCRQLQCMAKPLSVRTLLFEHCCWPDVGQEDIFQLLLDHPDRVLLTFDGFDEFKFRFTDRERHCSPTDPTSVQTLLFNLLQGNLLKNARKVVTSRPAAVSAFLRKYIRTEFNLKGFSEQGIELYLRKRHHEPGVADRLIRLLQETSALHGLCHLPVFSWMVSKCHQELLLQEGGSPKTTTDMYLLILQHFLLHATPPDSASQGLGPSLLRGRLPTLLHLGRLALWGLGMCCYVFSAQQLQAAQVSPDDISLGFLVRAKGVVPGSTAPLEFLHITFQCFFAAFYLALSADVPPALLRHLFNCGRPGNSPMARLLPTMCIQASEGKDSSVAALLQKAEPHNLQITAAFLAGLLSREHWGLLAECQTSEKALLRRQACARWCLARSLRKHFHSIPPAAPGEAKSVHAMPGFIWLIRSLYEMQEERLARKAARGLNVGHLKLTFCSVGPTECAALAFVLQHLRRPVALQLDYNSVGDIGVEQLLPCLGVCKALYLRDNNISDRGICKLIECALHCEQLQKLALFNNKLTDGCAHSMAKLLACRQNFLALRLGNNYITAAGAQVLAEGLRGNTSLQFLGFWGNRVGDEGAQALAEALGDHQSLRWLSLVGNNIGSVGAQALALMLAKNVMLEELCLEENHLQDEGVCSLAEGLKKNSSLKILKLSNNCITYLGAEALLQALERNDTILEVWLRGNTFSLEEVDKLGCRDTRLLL

HEK293 [10] = experiment: cells; format: functional, cell-based; details: Homo sapiens
HEK293 [11] = experiment: inhibition of NOD1-driven NF-kB reporter – cell-based, luminescence, uHTS, primary screen (AID 1578); format: functional; details: Homo sapiens
HEK293 [12] = experiment: cells; format: functional, cell-based; details: Homo sapiens; remark: listed apart in the source
HEK293 [13] = experiment: NOD2 signaling inhibitors in MDP-stimulated cells, cell-based, uHTS, luminescence (AID 2001); format: functional; details: Homo sapiens
HEK293 [14] = experiment: cells; format: functional, cell-based; details: Homo sapiens; remark: listed apart in the source
[15] = molecular target: T3, Heat shock factor protein 1 (Mus musculus, UniProt P38532); experiment: decrease of HSF1-responsive luciferase luminescence – cell-based, NIH3T3, dose retest, confirmation (AID 2382); format: functional;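 also: NIH3T3 fibroblasts with HSF1-driven luciferase reporter stressed by proteasome inhibitor MG132; luminescence from HSF1-driven luciferase expression after 8 hours of MG132 stress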
T3 sequence (P38532 whole entry): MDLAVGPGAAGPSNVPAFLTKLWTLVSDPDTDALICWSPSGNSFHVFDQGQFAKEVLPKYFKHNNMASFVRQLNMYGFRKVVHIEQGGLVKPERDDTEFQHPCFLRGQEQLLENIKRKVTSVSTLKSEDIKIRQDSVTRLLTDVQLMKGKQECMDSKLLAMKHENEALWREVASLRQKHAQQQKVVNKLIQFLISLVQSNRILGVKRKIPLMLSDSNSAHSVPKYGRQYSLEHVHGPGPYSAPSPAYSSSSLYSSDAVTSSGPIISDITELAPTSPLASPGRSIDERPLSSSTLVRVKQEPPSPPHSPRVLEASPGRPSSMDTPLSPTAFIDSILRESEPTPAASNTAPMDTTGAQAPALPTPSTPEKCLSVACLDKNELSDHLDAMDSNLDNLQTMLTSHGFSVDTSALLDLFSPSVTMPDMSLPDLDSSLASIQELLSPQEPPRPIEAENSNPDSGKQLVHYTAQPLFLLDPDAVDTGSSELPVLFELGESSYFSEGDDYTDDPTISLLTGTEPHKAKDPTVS

[16] = luciferase reporter signal suppression in cells – H4 neuroglioma cells, luminescence, dose response (AID 1990); format: functional, cell-based
[17] = alpha-synuclein stem-loop luciferase translation blockers – H4 neuroglioma cells, luminescence, confirmation (AID 1988); format: functional, cell-based
[18] = Luminescence Cell-Based Dose Response HTS to Identify Inhibitors of 5'UTR Stem-Loop Driven Prion Protein mRNA Translation in H4 Neuroglioblastoma Cells. [Related pubchem assays: 1827 (Project Summary), 1813 (Primary HTS)]; format: functional
HEK293 [19] = experiment: EBV LMP1 TES2 canonical NF-kB signalling blockers – cell-based, HEK293, luciferase, cherry-pick, dose response (AID 588343); format: functional; details: Homo sapiens
Bcl-2-like protein 10 = molecular target: T4, Bcl-2-like protein 10 (Homo sapiens, UniProt Q9HD36); experiment: Bcl-B/TR3 peptide binding disruption – biochemical, fluorescence polarization, FITC-TR3 peptide, selectivity assay for Bfl-1 inhibitor project, primary screen (AID 748);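 also: fluorescence polarization from a fluorescein-labelled TR3 peptide binding purified Bcl-B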
T4 sequence (Q9HD36 whole entry): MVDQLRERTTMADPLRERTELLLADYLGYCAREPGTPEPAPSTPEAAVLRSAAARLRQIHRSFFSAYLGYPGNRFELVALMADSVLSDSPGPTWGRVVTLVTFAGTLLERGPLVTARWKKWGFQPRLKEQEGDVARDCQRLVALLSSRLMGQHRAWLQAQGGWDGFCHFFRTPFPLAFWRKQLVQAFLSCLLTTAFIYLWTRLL

[20] = molecular target: G-protein coupled receptor 55 (Homo sapiens, UniProt Q9Y2T6); experiment: selective activators of receptor GPR55 – imaging, U2OS cells, beta-arrestin-GFP redistribution, primary screen (AID 1961); format: functional
Chain of G-protein coupled receptor 55 (Q9Y2T6 whole entry): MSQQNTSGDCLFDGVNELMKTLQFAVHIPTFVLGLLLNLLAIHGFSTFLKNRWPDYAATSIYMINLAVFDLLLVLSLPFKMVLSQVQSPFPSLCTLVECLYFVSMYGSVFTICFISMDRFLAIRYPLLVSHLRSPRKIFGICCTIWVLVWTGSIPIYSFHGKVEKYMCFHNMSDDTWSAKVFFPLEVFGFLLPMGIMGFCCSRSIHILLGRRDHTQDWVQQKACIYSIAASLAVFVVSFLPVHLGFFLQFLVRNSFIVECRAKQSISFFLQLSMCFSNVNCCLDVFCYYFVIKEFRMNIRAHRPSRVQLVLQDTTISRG

[21] = molecular target: T5, Calpain-2 catalytic subunit (Sus scrofa, UniProt P43367); experiment: m-calpain protease blockers, concentration series – biochemical, fluorogenic peptide substrate, dose response (AID 1420); format: functional
T5 sequence (P43367 whole entry): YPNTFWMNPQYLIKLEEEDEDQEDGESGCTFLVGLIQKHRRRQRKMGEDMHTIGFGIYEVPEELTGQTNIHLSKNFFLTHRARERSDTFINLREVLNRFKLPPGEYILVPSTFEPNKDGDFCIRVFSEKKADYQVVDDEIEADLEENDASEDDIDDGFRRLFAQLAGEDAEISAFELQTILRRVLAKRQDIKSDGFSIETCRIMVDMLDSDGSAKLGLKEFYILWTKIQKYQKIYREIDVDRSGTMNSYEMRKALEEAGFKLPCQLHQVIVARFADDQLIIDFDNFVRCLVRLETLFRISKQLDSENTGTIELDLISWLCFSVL

[22] = molecular target: T6, Alkaline phosphatase, tissue-nonspecific isozyme (Homo sapiens, UniProt P05186); experiment: TNAP enzyme inhibition by screening hits, dose response, selectivity assay for mouse IAP inhibitor project, biochemical, human TNAP, uHTS hits (AID 488906); format: functional
T6 sequence (P05186 whole entry): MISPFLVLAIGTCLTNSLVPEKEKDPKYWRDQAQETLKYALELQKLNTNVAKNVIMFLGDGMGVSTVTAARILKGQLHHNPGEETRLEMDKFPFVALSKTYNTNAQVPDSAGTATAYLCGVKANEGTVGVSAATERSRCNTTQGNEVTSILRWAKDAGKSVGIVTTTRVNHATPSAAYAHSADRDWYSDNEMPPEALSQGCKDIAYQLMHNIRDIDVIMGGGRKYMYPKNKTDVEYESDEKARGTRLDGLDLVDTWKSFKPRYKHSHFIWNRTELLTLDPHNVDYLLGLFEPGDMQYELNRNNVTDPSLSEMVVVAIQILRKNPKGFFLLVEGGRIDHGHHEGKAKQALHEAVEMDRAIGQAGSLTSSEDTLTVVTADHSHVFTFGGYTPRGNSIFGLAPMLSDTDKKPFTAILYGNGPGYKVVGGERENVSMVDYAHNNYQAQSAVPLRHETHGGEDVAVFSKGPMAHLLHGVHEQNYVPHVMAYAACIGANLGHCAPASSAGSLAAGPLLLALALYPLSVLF

[23] = molecular target: Intestinal-type alkaline phosphatase (Mus musculus, UniProt P24822); experiment: PubChem AID 488785; format: functional
Chain of Intestinal-type alkaline phosphatase (Mus musculus, UniProt P24822) (P24822 whole entry): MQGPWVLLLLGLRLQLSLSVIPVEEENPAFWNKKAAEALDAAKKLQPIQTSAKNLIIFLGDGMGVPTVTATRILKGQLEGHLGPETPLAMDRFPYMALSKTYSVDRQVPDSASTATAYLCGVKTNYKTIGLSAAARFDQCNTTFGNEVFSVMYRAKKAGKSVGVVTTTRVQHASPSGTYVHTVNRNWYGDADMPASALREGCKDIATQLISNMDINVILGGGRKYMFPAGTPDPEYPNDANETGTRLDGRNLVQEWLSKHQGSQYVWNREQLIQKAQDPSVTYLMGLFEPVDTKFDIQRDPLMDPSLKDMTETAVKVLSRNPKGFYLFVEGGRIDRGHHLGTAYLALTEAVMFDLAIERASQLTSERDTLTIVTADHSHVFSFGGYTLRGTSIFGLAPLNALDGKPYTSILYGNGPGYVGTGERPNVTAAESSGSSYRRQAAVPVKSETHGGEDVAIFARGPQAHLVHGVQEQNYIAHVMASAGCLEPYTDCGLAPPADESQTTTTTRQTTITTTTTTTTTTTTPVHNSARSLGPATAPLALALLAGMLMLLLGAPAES

[24] = molecular target: Intestinal-type alkaline phosphatase (Homo sapiens, UniProt P09923); experiment: inhibition of human intestinal alkaline phosphatase – biochemical, dose response (AID 488876); format: functional
Chain of Intestinal-type alkaline phosphatase (Homo sapiens, UniProt P09923) (P09923 whole entry): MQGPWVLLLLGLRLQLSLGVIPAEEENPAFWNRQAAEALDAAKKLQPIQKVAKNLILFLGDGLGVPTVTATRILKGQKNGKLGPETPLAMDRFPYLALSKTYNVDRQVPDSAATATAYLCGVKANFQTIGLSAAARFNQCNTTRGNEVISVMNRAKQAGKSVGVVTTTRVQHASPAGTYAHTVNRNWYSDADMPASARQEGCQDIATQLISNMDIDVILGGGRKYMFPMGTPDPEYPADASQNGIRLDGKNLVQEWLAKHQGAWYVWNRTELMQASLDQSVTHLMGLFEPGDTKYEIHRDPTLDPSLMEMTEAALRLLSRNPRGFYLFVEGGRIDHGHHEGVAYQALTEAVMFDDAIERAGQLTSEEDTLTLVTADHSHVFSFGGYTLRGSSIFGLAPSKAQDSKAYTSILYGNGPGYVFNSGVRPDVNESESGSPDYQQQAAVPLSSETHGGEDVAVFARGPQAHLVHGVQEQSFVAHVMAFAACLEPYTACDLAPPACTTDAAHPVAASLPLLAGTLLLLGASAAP

[25] = molecular target: T7, Microphthalmia-associated transcription factor (Homo sapiens, UniProt O75030); experiment: reducers of TRPM1 reporter luminescence, concentration series – cell-based, SK-MEL-5, cherry-picked, set 3, MITF inhibitor project, dose response (AID 493073); format: functional;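 also: SK-MEL-5 melanoma cells with luciferase driven by the MITF target TRPM1 promoter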
T7 sequence (O75030 whole entry): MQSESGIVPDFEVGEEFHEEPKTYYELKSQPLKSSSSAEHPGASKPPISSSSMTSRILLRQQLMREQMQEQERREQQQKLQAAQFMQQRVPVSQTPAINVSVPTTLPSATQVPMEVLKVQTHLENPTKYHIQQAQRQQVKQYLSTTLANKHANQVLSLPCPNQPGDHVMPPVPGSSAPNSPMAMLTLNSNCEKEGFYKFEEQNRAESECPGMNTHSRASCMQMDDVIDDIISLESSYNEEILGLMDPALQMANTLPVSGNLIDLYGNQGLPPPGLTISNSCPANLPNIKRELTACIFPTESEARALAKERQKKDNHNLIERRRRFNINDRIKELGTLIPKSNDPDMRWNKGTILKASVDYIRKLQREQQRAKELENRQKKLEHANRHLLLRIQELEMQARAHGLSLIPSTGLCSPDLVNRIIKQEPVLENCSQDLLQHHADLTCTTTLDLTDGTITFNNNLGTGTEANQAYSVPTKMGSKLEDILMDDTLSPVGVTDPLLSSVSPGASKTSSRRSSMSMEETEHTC

Which IC50 [1] does the source give for `COc1cccc(-c2noc(CCC(=O)NCCc3ccccc3)n2)c1` here?
The IC50 was > 80 µM (inactive).

Which CC50 [2] does the source give for `CCC1CCCCN1S(=O)(=O)c1ccc(C(=O)Nc2nnc(-c3cccs3)o2)cc1` (centres undefined) here?
Its CC50 is 2.43 µM (active).

And the CC50 [3]?
The CC50 was 9.09 µM (active).

What about the CC50 [4] of the same compound?
The CC50 was 3.49 µM (active).

And the EC50 [5]?
Its EC50 is 1.44 µM (active).

What about the IC50 (cells) of the same compound?
Its IC50 is 6.49 µM (active).

For `CCOC(=O)c1cc(-c2ccncc2)nc2c1c(C)nn2C`, which IC50 [6] is on record?
The IC50 was 11.3 µM (active).

And the IC50 [7]?
The IC50 was 5.32 µM (active).

And the IC50 (Bcl-2-related protein A1)?
The IC50 was > 20 µM (inactive).

For `Cc1cc(C)cc(NC(=O)Nc2ccc(NC(=O)c3ccccc3O)cc2)c1`, which IC50 [1] is on record?
The IC50 was > 80 µM (inactive).

What about the AC50 [8] of the same compound?
Its AC50 is 0.167 µM (active).

Which EC50 [9] does the source give for `O=C(CCl)Nc1ccccc1Sc1ccc(Cl)cc1` here?
Its EC50 is 6.69 µM (active).

And the IC50 (HEK293 [10])?
Its IC50 is > 20 µM (inactive).

And the EC50 (HEK293 [11])?
Its EC50 is 7.79 µM (active).

What about the IC50 (HEK293 [12]) of the same compound?
Its IC50 is 4.56 µM (active).

And the IC50 (HEK293 [13])?
Its IC50 is 9.91 µM (active).

And the IC50 (HEK293 [14])?
Its IC50 is > 20 µM (inactive).

With `Oc1[nH]c2ccccc2c1N=NC(S)=NCC1CCCO1` (centres undefined) as the compound, how does the IC50 [6] read?
Its IC50 is 1.73 µM (active).

And the IC50 [7]?
Its IC50 is 0.967 µM (active).

What about the EC50 [15] of the same compound?
The EC50 was > 195 µM (not active).

What about the IC50 (Bcl-2-related protein A1) of the same compound?
The IC50 was > 20 µM (inactive).

With `CCOC(=O)CNC(=O)CSc1nnc(NC(=O)c2ccc(C)cc2)s1` as the compound, how does the EC50 [16] read?
Its EC50 is 9.66 µM (active).

What about the EC50 [17] of the same compound?
Its EC50 is 7.31 µM (active).

And the EC50 [18]?
The EC50 was 11 µM (active).

And the IC50 [1]?
Its IC50 is > 80 µM (inactive).

What about the AC50 (HEK293 [19]) of the same compound?
The AC50 was 1.65 µM (active).

With `c1coc(C2Nc3cccc4cccc(c34)N2)c1` as the compound, how does the EC50 [16] read?
The EC50 was > 120 µM (not active).

And the EC50 [17]?
Its EC50 is > 120 µM (not active).

And the IC50 (Bcl-2-like protein 10)?
Its IC50 is 42.8 µM (active).

What about the EC50 [18] of the same compound?
The EC50 was > 120 µM (not active).

For `Cc1ccc2c(Cl)cc(Cl)c(OCC(=O)Nc3ccc(C)c(S(=O)(=O)N(C)C)c3)c2n1`, which EC50 [20] is on record?
Its EC50 is > 32 µM (inactive).

Which results are given for `O=C(CCCCCN1C(=O)c2ccccc2C1=O)Nc1ccc(S(=O)(=O)N2CCCCC2)cc1`?
IC50 [6]: 0.982 µM (active); IC50 [21]: 2.38 µM (not active); IC50 [7]: 1.34 µM (active); IC50 (Bcl-2-related protein A1): > 20 µM (inactive)

With `NS(=O)(=O)c1ccc(NC(=S)NC(=O)/C=C/c2ccco2)cc1` as the compound, how does the IC50 [22] read?
The IC50 was > 100 µM (inactive).

And the IC50 [23]?
Its IC50 is 1.87 µM (active).

What about the IC50 [24] of the same compound?
Its IC50 is 8.09 µM (active).

Which results are given for `CN1C/C(=C/c2cccnc2)C(=O)/C(=C/c2cccnc2)C1`?
CC50 [2]: > 20 µM (active); CC50 [3]: 8.54 µM (active); AC50 [25]: 5.31 µM (active); CC50 [4]: 6.26 µM (active); IC50 (cells): 16.8 µM (active)

For `O=C(COC(=O)Cc1ccccc1)Nc1ncc(Cl)cc1Cl`, which IC50 (Bcl-2-like protein 10) is on record?
Its IC50 is 91.5 µM (inactive).
